Measured values published in patent US12187728B2 (Raze Therapeutics, Inc., priority 2015, dated 2025).

Molecular target: T1, Human MTHFD2 (Homo sapiens, UniProt P13995)
T1 construct: residues 36-350 in Uniport ID P13995; His6 (N); made in house; host or cells: E. coli
T1 sequence (P13995 36-350): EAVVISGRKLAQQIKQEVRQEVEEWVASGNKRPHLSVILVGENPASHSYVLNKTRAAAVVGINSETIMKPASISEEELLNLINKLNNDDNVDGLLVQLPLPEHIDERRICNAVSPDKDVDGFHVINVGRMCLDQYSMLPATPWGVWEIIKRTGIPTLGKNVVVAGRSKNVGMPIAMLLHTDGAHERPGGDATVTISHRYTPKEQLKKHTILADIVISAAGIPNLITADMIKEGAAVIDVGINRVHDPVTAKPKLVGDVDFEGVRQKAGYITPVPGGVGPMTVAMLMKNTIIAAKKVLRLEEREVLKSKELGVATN
Assay: MTHFD2 Activity Assay (dehydrogenase activity, diaphorase/resazurin coupled fluorescence)
Assay type: biochemical
Conditions: inhibitory activity (IC50 and/or binding constant); 0.2 nM MTHFD2, 11 concentrations
Description: Human MTHFD2 (residues 36-350 in Uniport ID P13995) was expressed as an N-terminal His6 tagged protein and purified in E. coli using nickel capture followed by size-exclusion chromatography.
MTHFD2 dehydrogenase activity oxidizes methylene tetrahyrofolate to methenyl-tetrahydrofolate with the concomitant reduction of NAD to NADH. MTHFD2 dehydrogenase activity was followed by coupling the generation of NADH to diaphorase catalyzed […] of resazurin to fluorescent resorufin. Briefly, control (DMSO) or compound was incubated with 0.2 nM MTHFD2 for 15 minutes in 10.5 μl assay buffer containing 100 mM Hepes, pH 8.0, 5 mM MgCl2, 5 mM KH2PO4, 0.05% BSA, 0.01% Tween-20 in a 384 well Griener, low volume, black plate. 10 μl of substrate buffer containing 70 μM CH2-THF, 1 mM NAD^+, 100 μM Resazurin and 0.42 mg/ml diaphorase was then added to initiate the reaction and the reaction plate was incubated for 30 minutes. 5 μl of 250 mM EDTA was then added to each well to stop the reaction and MTHFD2 activity was quantified by measuring resorufin fluorescence emission at 598 nm following excitation at 525 nm. Activity in positive control wells containing the complete reaction mixture and DMSO alone was set to 100% while activity in negative control wells with the complete reaction mix without MTHFD2 was set to 0%. 11 concentrations of each compound were tested and the fluorescent data at each concentration was normalized to the positive and negative controls and represented as % inhibition. Median inhibitory concentration (IC50) was calculated by fitting % inhibition at each concentration to a 4 parameter logistic fit equation using Graphpad Prizm.
The compound numbers correspond to the compound numbers in Table A (i.e., the example numbers).

Compound	IC50
Cn1c(Nc2ccnc([C@H]3C[C@@H]3C(=O)O)c2)nc2c1c(=O)n(Cc1ccc(Cl)c(Cl)c1)c(=O)n2C (racemic) [Example 279, (±)-trans-2-(4-((1-(3,4-dichlorobenzyl)-3,7-dimethyl-2,6-dioxo-2,3,6,7-tetrahydro-1H-purin-8-yl)amino)pyridin-2-yl)cyclopropanecarboxylic acid]	10 to 1000 nM
Cn1c(Nc2ccnc([C@H]3C[C@@H]3C(N)=O)c2)nc2c1c(=O)n(Cc1ccc(Cl)c(Cl)c1)c(=O)n2C (racemic) [Example 296, (±)-trans-2-(4-((1-(3,4-Dichlorobenzyl)-3,7-dimethyl-2,6-dioxo-2,3,6,7-tetrahydro-1H-purin-8-yl)amino)pyridin-2-yl)cyclopropanecarboxamide]	10 to 1000 nM
Cn1c(N[C@H]2CC[C@H](CO)C2)nc2c1c(=O)n(Cc1ccc(Cl)c(Cl)c1)c(=O)n2C (racemic) [Example 325, (±)-1-(3,4-dichlorobenzyl)-8-((trans)-3-(hydroxymethyl)cyclopentylamino)-3,7-dimethyl-1H-purine-2,6(3H,7H)-dione]	10 to 1000 nM
Cn1c(N[C@H]2CC[C@@H](O)C2)nc2c1c(=O)n(Cc1ccc(Cl)c(Cl)c1)c(=O)n2C (single isomer, unassigned) [Example 43, 1-(3,4-dichlorobenzyl)-8-((1S,3R)-3-hydroxycyclopentylamino)-3,7-dimethyl-1H-purine-2,6(3H,7H)-dione or 1-(3,4-dichlorobenzyl)-8-((1R,3S)-3-hydroxycyclopentylamino)-3,7-dimethyl-1H-purine-2,6(3H,7H)-dione]	10 to 1000 nM
Cn1c(N[C@H]2CC[C@H](O)C2)nc2c1c(=O)n(Cc1ccc(Cl)c(Cl)c1)c(=O)n2C (single isomer, unassigned) [Example 70, 1-(3,4-dichlorobenzyl)-8-((1S,3S)-3-hydroxycyclopentylamino)-3,7-dimethyl-1H-purine-2,6(3H,7H)-dione or 1-(3,4-dichlorobenzyl)-8-((1R,3R)-3-hydroxycyclopentylamino)-3,7-dimethyl-1H-purine-2,6(3H,7H)-dione]	10 to 1000 nM
Cn1c(N[C@H]2CC[C@@H](O)C2)nc2c1c(=O)n(Cc1ccc(Cl)c(Cl)c1)c(=O)n2C (single isomer, unassigned) [Example 71, 1-(3,4-dichlorobenzyl)-8-((1S,3R)-3-hydroxycyclopentylamino)-3,7-dimethyl-1H-purine-2,6(3H,7H)-dione or 1-(3,4-dichlorobenzyl)-8-((1R,3S)-3-hydroxycyclopentylamino)-3,7-dimethyl-1H-purine-2,6(3H,7H)-dione]	10 to 1000 nM
Cn1c(N[C@@H]2CC[C@@H](O)C2)nc2c1c(=O)n(Cc1ccc(C(F)(F)F)cc1)c(=O)n2C (single isomer, unassigned) [Example 76, 8-((1R,3R)-3-hydroxycyclopentylamino)-3,7-dimethyl-1-(4-(trifluoromethyl)benzyl)-1H-purine-2,6(3H,7H)-dione or 8-((1S,3S)-3-hydroxycyclopentylamino)-3,7-dimethyl-1-(4-(trifluoromethyl)benzyl)-1H-purine-2,6(3H,7H)-dione]	1000 to 5000 nM
Cn1c(N[C@H]2CCC[C@@H](O)C2)nc2c1c(=O)n(Cc1ccc(Cl)c(Cl)c1)c(=O)n2C (single isomer, unassigned) [Example 78, 1-(3,4-dichlorobenzyl)-8-((1S,3R)-3-hydroxycyclohexylamino)-3,7-dimethyl-1H-purine-2,6(3H,7H)-dione or 1-(3,4-dichlorobenzyl)-8-((1R,3S)-3-hydroxycyclohexylamino)-3,7-dimethyl-1H-purine-2,6(3H,7H)-dione]	10 to 1000 nM
Cn1c(N[C@H]2CCC[C@@H](O)C2)nc2c1c(=O)n(Cc1ccc(Cl)c(Cl)c1)c(=O)n2C (single isomer, unassigned) [Example 79, 1-(3,4-dichlorobenzyl)-8-((1S,3R)-3-hydroxycyclohexylamino)-3,7-dimethyl-1H-purine-2,6(3H,7H)-dione or 1-(3,4-dichlorobenzyl)-8-((1R,3S)-3-hydroxycyclohexylamino)-3,7-dimethyl-1H-purine-2,6(3H,7H)-dione]	10 to 1000 nM
Cn1c(N[C@H]2CCC[C@H](O)C2)nc2c1c(=O)n(Cc1ccc(Cl)c(Cl)c1)c(=O)n2C (single isomer, unassigned) [Example 80, 1-(3,4-dichlorobenzyl)-8-((1S,3S)-3-hydroxycyclohexylamino)-3,7-dimethyl-1H-purine-2,6(3H,7H)-dione or 1-(3,4-dichlorobenzyl)-8-((1R,3R)-3-hydroxycyclohexylamino)-3,7-dimethyl-1H-purine-2,6(3H,7H)-dione]	10 to 1000 nM

The next lines start with the values.

IC50	Compound
10 to 1000 nM	Cn1c(Nc2ccnc([C@H]3C[C@@H]3CO)c2)nc2c1c(=O)n(Cc1ccc(Cl)c(Cl)c1)c(=O)n2C (racemic) [Example 284, (±)-trans-1-(3,4-dichlorobenzyl)-8-((2-(2-(hydroxymethyl)cyclopropyl)pyridin-4-yl)amino)-3,7-dimethyl-1H-purine-2,6(3H,7H)-dione]
10 to 1000 nM	Cn1c(Nc2cccc([C@H]3C[C@@H]3C(=O)O)n2)nc2c1c(=O)n(Cc1ccc(Cl)c(Cl)c1)c(=O)n2C (racemic) [Example 299, (±)-trans-2-(6-((1-(3,4-dichlorobenzyl)-3,7-dimethyl-2,6-dioxo-2,3,6,7-tetrahydro-1H-purin-8-yl)amino)pyridin-2-yl)cyclopropanecarboxylic acid]
10 to 1000 nM	Cn1c(Nc2cccc([C@@H]3C[C@H]3C(=O)O)n2)nc2c1c(=O)n(Cc1cc3c(Cl)cccc3[nH]1)c(=O)n2C (racemic) [Example 315, (±)-trans-2-[6-[[1-[(4-chloro-1H-indol-2-yl)methyl]-3,7-dimethyl-2,6-dioxo-purin-8-yl]amino]-2-pyridyl]cyclopropanecarboxylic acid]
10 to 1000 nM	Cn1c(Nc2ccnc([C@H]3C[C@@H]3C(=O)O)c2)nc2c1c(=O)n(Cc1cc3c(Cl)cccc3[nH]1)c(=O)n2C (racemic) [Example 321, (±)-trans-2-(4-((1-((4-chloro-1H-indol-2-yl)methyl)-3,7-dimethyl-2,6-dioxo-2,3,6,7-tetrahydro-1H-purin-8-yl)amino)pyridin-2-yl)cyclopropanecarboxylic acid]
10 to 1000 nM	Cn1c(Nc2ccnc([C@H]3C[C@H]3C(=O)O)c2)nc2c1c(=O)n(Cc1ccc(Cl)c(Cl)c1)c(=O)n2C (racemic) [Example 332, (±)-cis-2-(4-((1-(3,4-dichlorobenzyl)-3,7-dimethyl-2,6-dioxo-2,3,6,7-tetrahydro-1H-purin-8-yl)amino)pyridin-2-yl)cyclopropanecarboxylic acid]
1000 to 5000 nM	Cn1c(Nc2cccc([C@H]3C[C@@H]3CO)n2)nc2c1c(=O)n(Cc1cc3c(Cl)cccc3[nH]1)c(=O)n2C (racemic) [Example 335, (±)-trans-1-((4-chloro-1H-indol-2-yl)methyl)-8-((6-(-2-(hydroxymethyl)cyclopropyl)pyridin-2-yl)amino)-3,7-dimethyl-1H-purine-2,6(3H,7H)-dione]
10 to 1000 nM	Cn1c(Nc2cccc([C@H]3C[C@H]3C(=O)O)n2)nc2c1c(=O)n(Cc1ccc(Cl)c(Cl)c1)c(=O)n2C (racemic) [Example 357, (±)-cis-2-(6-((1-(3,4-dichlorobenzyl)-3,7-dimethyl-2,6-dioxo-2,3,6,7-tetrahydro-1H-purin-8-yl)amino)pyridin-2-yl)cyclopropanecarboxylic acid]
10 to 1000 nM	Cn1c(Nc2cccc([C@@H]3C[C@H]3C(N)=O)n2)nc2c1c(=O)n(Cc1cc3c(Cl)cccc3[nH]1)c(=O)n2C (racemic) [Example 364, (±)-trans-2-(6-((1-((4-chloro-1H-indol-2-yl)methyl)-3,7-dimethyl-2,6-dioxo-2,3,6,7-tetrahydro-1H-purin-8-yl)amino)pyridin-2-yl)cyclopropanecarboxamide]
10 to 1000 nM	Cn1c(Nc2ccnc([C@H]3C[C@H]3C(=O)O)c2)nc2c1c(=O)n(Cc1cc3c(Cl)cccc3[nH]1)c(=O)n2C (racemic) [Example 368, (±)-cis-2-(4-((1-((4-chloro-1H-indol-2-yl)methyl)-3,7-dimethyl-2,6-dioxo-2,3,6,7-tetrahydro-1H-purin-8-yl)amino)pyridin-2-yl)cyclopropanecarboxylic acid]
10 to 1000 nM	Cn1c(Nc2cccc([C@H]3C[C@H]3C(=O)O)n2)nc2c1c(=O)n(Cc1cc3c(Cl)cccc3[nH]1)c(=O)n2C (racemic) [Example 372, (±)-cis-2-(6-((1-((4-chloro-1H-indol-2-yl)methyl)-3,7-dimethyl-2,6-dioxo-2,3,6,7-tetrahydro-1H-purin-8-yl)amino)pyridin-2-yl)cyclopropane-1-carboxylic acid]
